The values below come from patent US20250121013A1, “USE OF BACILLUS AMYLOLIQUEFACIENS FOR PREVENTING AND TREATING PARKINSON'S DISEASE” (Artugen Therapeutics Ltd., priority 2021, published 2025).

Assay [1] deals with ART24. The experiment in a line: Antibiotic susceptibility of ART24 lots and cell banks, MIC following EFSA testing recommendations (Table 3). It is filed as cell-based, Bacillus amyloliquefaciens. Particulars: for MIC: Bacillus amyloliquefaciens. The method, then: The minimum inhibitory concentration (MIC) of the listed antimicrobials is expressed as μg/mL. Additional studies following EFSA testing recommendations were performed on lyophilized ART24 lots CO-33-10A2 and CO-33-12A2 and Research and Master Cell Banks CO-33-ART24 BHI and CO-33-ART24 SYD, and those results are shown in Table 3.

Assay [2] has as its system ART24. The assay is described as follows: Antibiotic susceptibility of ART24, MIC, VetMIC panels (Table 2). Type of assay: cell-based, Bacillus amyloliquefaciens. Particulars: 24 hr at 37° C., average results from N = 6; for MIC: Bacillus amyloliquefaciens, read-out: ART24 MIC. The protocol:
The minimum inhibitory concentration (MIC) of the listed antimicrobials is expressed as μg/mL. […] The wells of the prefabricated 96-well plates were filled with 100 μL of the final suspension. The plates were sealed with an […], Sigma Aldrich) sealing film (to facilitate growth of the aerobic Bacillus. The plates were then incubated for 24 hr at 37° C. The results are recorded after 24 hours as the lowest concentration of the antibiotic to inhibit visible growth. The prefabricated panels […], Uppsala, Sweden) comprising the antibiotics ampicillin, vancomycin, gentamicin, kanamycin, streptomycin, erythromycin, clindamycin, tetracycline, chloramphenicol, neomycin, penicillin, quinupristin-dalfopristin, linezolid, trimethoprim, ciprofloxacin and rifampicin were used.

Where [3] appears, read: ART24 source: cell bank CO-33 ART 24 BHI.
Where [4] appears, read: ART24 source: cell bank CO-33 ART 024 SYD.
The mark [5] stands for this setting: ART24 source: lyophilized lot CO-33-10A2.
Where [6] appears, read: ART24 source: lyophilized lot CO-33-12A2.
Where [7] appears, read: ART24 source: cell bank CO-33 ART 24 BHI, read-out: MIC, CO-33 ART 24 BHI.
Setting [8] is: ART24 source: cell bank CO-33 ART 024 SYD, read-out: MIC, CO-33 ART 024 SYD.
Setting [9] is: ART24 source: lyophilized lot CO-33-10A2, read-out: MIC, CO-33-10A2.
Where [10] appears, read: ART24 source: lyophilized lot CO-33-12A2, read-out: MIC, CO-33-12A2.

Values after ≈ are worked out from the molar mass of the structure shown. Where only a bound is given, the exact number is not on record here.

One may read the MIC as the smallest concentration in the dilution series that meets the test's criterion for growth inhibition. Take `[H]/N=C(/N)N[C@H]1[C@H](O)[C@@H](O)[C@H](O[C@@H]2O[C@@H](C)[C@](O)(C=O)[C@H]2O[C@@H]2O[C@@H](CO)[C@H](O)[C@@H](O)[C@@H]2NC)[C@@H](N/C(N)=N\[H])[C@@H]1O` [Streptomycin]: the “MIC interpretation, CO-33 ART 24 BHI” value in assay [1] (setting [3]) is reported as “S”. Also, in assay [1] (setting [4]), the “MIC interpretation, CO-33 ART 024 SYD” value is reported as “S”. Further, the “MIC interpretation, CO-33-10A2” value in assay [1] (setting [5]) is reported as “S”. In assay [1] (setting [6]), the “MIC interpretation, CO-33-12A2” value is given as “S”. The MIC in assay [1] (setting [7]) came to 1 µg/mL (≈ 1.72 µM); in assay [1] (setting [8]), 2 µg/mL (≈ 3.44 µM); in assay [1] (setting [9]), 1 µg/mL (≈ 1.72 µM); in assay [1] (setting [10]), 1 µg/mL (≈ 1.72 µM); in assay [2], 4 µg/mL (≈ 6.88 µM).

`CC(=O)NC[C@H]1CN(c2ccc(N3CCOCC3)c(F)c2)C(=O)O1` [Linezolid]: the minimum inhibitory concentration (MIC) in assay [1] (setting [7]) was 0.5 µg/mL (≈ 1.48 µM); in assay [1] (setting [8]), 0.5 µg/mL (≈ 1.48 µM); in assay [1] (setting [9]), 0.25 µg/mL (≈ 0.741 µM); in assay [1] (setting [10]), 0.5 µg/mL (≈ 1.48 µM); in assay [2], 0.5 µg/mL (≈ 1.48 µM).

For the molecule Penicillin, in assay [1] (setting [3]), the “MIC interpretation, CO-33 ART 24 BHI” value is “S” and the “MIC, CO-33 ART 24 BHI” value is at most 0.03 µg/mL. Further, in assay [1] (setting [4]), the “MIC interpretation, CO-33 ART 024 SYD” value is “S” and the “MIC, CO-33 ART 024 SYD” value was determined as 0.06 µg/mL. Also, in assay [1] (setting [5]), the “MIC interpretation, CO-33-10A2” value is given as “S” and the “MIC, CO-33-10A2” value is at most 0.03 µg/mL. In assay [1] (setting [6]), the “MIC interpretation, CO-33-12A2” value is given as “S” and the “MIC, CO-33-12A2” value is at most 0.03 µg/mL. In addition, the “ART24 MIC” value in assay [2] fell in the range of 0.12 to 0.5 µg/mL.

As to Neomycin, in assay [1] (setting [3]), the “MIC, CO-33 ART 24 BHI” value is at most 0.12 µg/mL. In addition, the “MIC, CO-33 ART 024 SYD” value in assay [1] (setting [4]) was at most 0.12 µg/mL. The “MIC, CO-33-10A2” value in assay [1] (setting [5]) was at most 0.12 µg/mL. Besides, the “MIC, CO-33-12A2” value in assay [1] (setting [6]) is at most 0.12 µg/mL. The “ART24 MIC” value in assay [2] is at most 0.5 µg/mL.

On to `NC[C@H]1O[C@H](O[C@H]2[C@H](O)[C@@H](O[C@H]3O[C@H](CO)[C@@H](O)[C@H](N)[C@H]3O)[C@H](N)C[C@@H]2N)[C@H](O)[C@@H](O)[C@@H]1O` [Kanamycin], for which the “MIC interpretation, CO-33 ART 24 BHI” value in assay [1] (setting [3]) is recorded as “S”. In addition, the “MIC interpretation, CO-33 ART 024 SYD” value in assay [1] (setting [4]) is recorded as “S”. Moreover, in assay [1] (setting [5]), the “MIC interpretation, CO-33-10A2” value is “S”. The “MIC interpretation, CO-33-12A2” value in assay [1] (setting [6]) is listed as “S”. The minimum inhibitory concentration (MIC) is at most 0.5 µg/mL in assay [1] (setting [7]); at most 0.5 µg/mL in assay [1] (setting [8]); at most 0.5 µg/mL in assay [1] (setting [9]); at most 0.5 µg/mL in assay [1] (setting [10]); at most 2 µg/mL in assay [2].

As to `COc1cc(Cc2cnc(N)nc2N)cc(OC)c1OC` [Trimethoprim], the MIC in assay [1] (setting [7]) is at most 0.25 µg/mL; in assay [1] (setting [8]), at most 0.25 µg/mL; in assay [1] (setting [9]), at most 0.25 µg/mL; in assay [1] (setting [10]), at most 0.25 µg/mL; in assay [2] it was at most 0.12 µg/mL.

Regarding `Cc1ncc([N+](=O)[O-])n1CCO` [Metronidazole], the MIC in assay [1] (aerobic, ART24 source CO-33-10A2, read-out: MIC, CO-33-10A2 (aerobic)) is over 64 µg/mL; in assay [1] (aerobic, ART24 source CO-33-12A2, read-out: MIC, CO-33-12A2 (aerobic)), over 64 µg/mL; in assay [1] (aerobic, ART24 source CO-33 ART 24 BHI, read-out: MIC, CO-33 ART 24 BHI (aerobic)), over 64 µg/mL; in assay [1] (aerobic, ART24 source CO-33 ART 024 SYD, read-out: MIC, CO-33 ART 024 SYD (aerobic)) it was over 64 µg/mL; in assay [1] (anaerobic, ART24 source CO-33-10A2, read-out: MIC, CO-33-10A2 (anaerobic)), 64 µg/mL (≈ 374 µM); in assay [1] (anaerobic, ART24 source CO-33-12A2, read-out: MIC, CO-33-12A2 (anaerobic)), 64 µg/mL (≈ 374 µM). For the same molecule, the MIC in assay [1] (anaerobic, ART24 source CO-33 ART 24 BHI, read-out: MIC, CO-33 ART 24 BHI (anaerobic)) stood at 64 µg/mL (≈ 374 µM); in assay [1] (anaerobic, ART24 source CO-33 ART 024 SYD, read-out: MIC, CO-33 ART 024 SYD (anaerobic)), 64 µg/mL (≈ 374 µM).

For the molecule `O=C(N[C@H](CO)[C@H](O)c1ccc([N+](=O)[O-])cc1)C(Cl)Cl` [Chloramphenicol], the “MIC interpretation, CO-33 ART 24 BHI” value in assay [1] (setting [3]) is “S”. Besides, in assay [1] (setting [4]), the “MIC interpretation, CO-33 ART 024 SYD” value was “S”. In addition, in assay [1] (setting [5]), the “MIC interpretation, CO-33-10A2” value is “S”. Also, in assay [1] (setting [6]), the “MIC interpretation, CO-33-12A2” value is listed as “S”. Besides, the MIC came to 2 µg/mL (≈ 6.19 µM) in assay [1] (setting [7]); 2 µg/mL (≈ 6.19 µM) in assay [1] (setting [8]); 2 µg/mL (≈ 6.19 µM) in assay [1] (setting [9]); 2 µg/mL (≈ 6.19 µM) in assay [1] (setting [10]); 4 µg/mL (≈ 12.4 µM) in assay [2].
